From patent publication US20080113944A1, “Novel Indole Derivatives” (Novo Nordisk A/S, priority 2004, published 2008) come the findings set out here.

In turn, `N#CC(=Cc1ccc2[nH]ccc2c1)S(=O)(=O)c1ccc([N+](=O)[O-])cc1` [Example 2, 3-(1H-indol-5-yl)-2-(4-nitrobenzenesulfonyl)acrylonitrile] came in with a melting point of 219 to 221 °C. Under `CS(=O)(=O)C(C#N)=Cc1ccc2[nH]ccc2c1` [Example 3, 3-(1 H-indol-5-yl)-2-methanesulfonylacrylonitrile] stands 184 to 185 °C.
